What all share (test): microbe, parasite or virus in culture
Type in all cases: functional

Assay [1] concerns Staphylococcus aureus. The following applies: ATCC 29213, 24 h.
Description: Antibacterial activity against methicillin- resistant and vancomycin resistant Staphylococcus aureus ATCC 29213 after 24 hrs by spectrophotometry
In a further assay the test system is Klebsiella pneumoniae. The following applies: ATCC 27736, 24 h.
Assay [2] relates to Staphylococcus aureus. The following applies: ATCC 25923, 24 h.
Description: Antibacterial activity against methicillin- resistant Staphylococcus aureus ATCC 25923 after 24 hrs by spectrophotometry

In brackets after ≈: the same amount, converted by molar mass.

Description for Klebsiella pneumoniae: Antibacterial activity against Klebsiella pneumoniae ATCC 27736 after 24 hrs by spectrophotometry

Turning to `O=C(O)c1cn(Cc2ccc(C(F)(F)F)cc2)c2c(F)c(N3CCN(c4ccccc4)CC3)c(F)cc2c1=O`, the MIC is 1.56 µg/mL (≈ 2.87 µM) in the assay with Staphylococcus aureus [1], 0.39 µg/mL (≈ 0.718 µM) against Klebsiella pneumoniae and 0.78 µg/mL (≈ 1.44 µM) with Staphylococcus aureus [2].
In the same order, the values of `CCn1cc(C(=O)O)c(=O)c2cc(F)c(N3CCN(c4nc(N5CCN(C)CC5)nc(N5CCN(C)CC5)n4)CC3)cc21` are 0.39 µg/mL (≈ 0.656 µM), 0.39 µg/mL (≈ 0.656 µM) and 0.39 µg/mL (≈ 0.656 µM).
The like results for `CCn1cc(C(=O)O)c(=O)c2cc(F)c(N3CCN(c4nc(NCCN5CCOCC5)nc(NCCN5CCOCC5)n4)CC3)c(F)c21` were, in that order, 1.56 µg/mL (≈ 2.32 µM), 0.78 µg/mL (≈ 1.16 µM) and 0.78 µg/mL (≈ 1.16 µM).
On to `CCCCNc1nc(NCCCC)nc(N2CCN(c3c(F)cc4c(=O)c(C(=O)O)cn(CC)c4c3F)CC2)n1`, for which the MIC with Staphylococcus aureus [1], with Klebsiella pneumoniae and in the assay on Staphylococcus aureus [2] was 0.39 µg/mL (≈ 0.698 µM) each time.
With `CCn1cc(C(=O)O)c(=O)c2cc(F)c(N3CCN(c4nc(NC(C)C)nc(NC(C)C)n4)CC3)c(F)c21`, the MIC against Staphylococcus aureus [1] was found to be 0.78 µg/mL (≈ 1.47 µM); with Klebsiella pneumoniae, 0.39 µg/mL (≈ 0.735 µM); with Staphylococcus aureus [2] it was 0.39 µg/mL (≈ 0.735 µM).
Take `O=C(O)c1cn(Cc2ccc(C(F)(F)F)cc2)c2c(F)c(N3CCN(c4nc(N5CCOCC5)nc(N5CCOCC5)n4)CC3)c(F)cc2c1=O`: the MIC came out at 1.56 µg/mL (≈ 2.18 µM) with Staphylococcus aureus [1], 1.56 µg/mL (≈ 2.18 µM) against Klebsiella pneumoniae and 3.12 µg/mL (≈ 4.35 µM) with Staphylococcus aureus [2].
With `CCCCNc1nc(NCCCC)nc(N2CCN(c3c(F)cc4c(=O)c(C(=O)O)cn(Cc5ccc(C(F)(F)F)cc5)c4c3F)CC2)n1`, the MIC is 0.39 µg/mL (≈ 0.566 µM) against Staphylococcus aureus [1], 0.39 µg/mL (≈ 0.566 µM) against Klebsiella pneumoniae and 3.12 µg/mL (≈ 4.53 µM) in the assay with Staphylococcus aureus [2].
As to `CC(C)(C)Nc1nc(NC(C)(C)C)nc(N2CCN(c3c(F)cc4c(=O)c(C(=O)O)cn(Cc5ccc(C(F)(F)F)cc5)c4c3F)CC2)n1`, the MIC with Staphylococcus aureus [1] is 6.25 µg/mL (≈ 9.08 µM); in the assay with Klebsiella pneumoniae, 1.56 µg/mL (≈ 2.27 µM); in the assay with Staphylococcus aureus [2], 3.12 µg/mL (≈ 4.53 µM).
For `CCCNc1nc(NCCC)nc(N2CCN(c3c(F)cc4c(=O)c(C(=O)O)cn(Cc5ccc(C(F)(F)F)cc5)c4c3F)CC2)n1`, the MIC with Staphylococcus aureus [1] was 1.56 µg/mL (≈ 2.36 µM); against Klebsiella pneumoniae, 0.78 µg/mL (≈ 1.18 µM); against Staphylococcus aureus [2], 1.56 µg/mL (≈ 2.36 µM).
`CC(C)Nc1nc(NC(C)C)nc(N2CCN(c3c(F)cc4c(=O)c(C(=O)O)cn(Cc5ccc(C(F)(F)F)cc5)c4c3F)CC2)n1`: the figures for the MIC in the assay with Staphylococcus aureus [1], with Klebsiella pneumoniae and in the assay with Staphylococcus aureus [2] were 0.78 µg/mL (≈ 1.18 µM), 0.39 µg/mL (≈ 0.59 µM) and 0.78 µg/mL (≈ 1.18 µM), respectively.
On to `CCn1cc(C(=O)O)c(=O)c2cc(F)c(N3CCN(c4cc(C)nc(NCCCN5CCOCC5)n4)CC3)c(F)c21`, for which the results for the MIC against Staphylococcus aureus [1], against Klebsiella pneumoniae and in the assay on Staphylococcus aureus [2] were 0.19 µg/mL (≈ 0.332 µM), 0.22 µg/mL (≈ 0.385 µM) and 0.22 µg/mL (≈ 0.385 µM), respectively.
`CCCCNc1nc(C)cc(N2CCN(c3c(F)cc4c(=O)c(C(=O)O)cn(CC)c4c3F)CC2)n1`: the MIC against Staphylococcus aureus [1] was 0.09 µg/mL (≈ 0.18 µM); in the assay with Klebsiella pneumoniae, 0.78 µg/mL (≈ 1.56 µM); with Staphylococcus aureus [2] it was 0.78 µg/mL (≈ 1.56 µM).
Regarding `CCn1cc(C(=O)O)c(=O)c2cc(F)c(N3CCN(c4cc(C)nc(NC(C)(C)C)n4)CC3)c(F)c21`, the results for the MIC with Staphylococcus aureus [1], against Klebsiella pneumoniae and against Staphylococcus aureus [2] were 0.78 µg/mL (≈ 1.56 µM), 0.78 µg/mL (≈ 1.56 µM) and 1.56 µg/mL (≈ 3.12 µM), respectively.
Turning to `Cc1cc(N2CCN(c3c(F)cc4c(=O)c(C(=O)O)cn(Cc5ccc(C(F)(F)F)cc5)c4c3F)CC2)nc(N2CCOCC2)n1`, the MIC against Staphylococcus aureus [1] was 1.56 µg/mL (≈ 2.42 µM); against Klebsiella pneumoniae, 0.78 µg/mL (≈ 1.21 µM); against Staphylococcus aureus [2], 1.56 µg/mL (≈ 2.42 µM).
For the compound `Cc1cc(N2CCN(c3c(F)cc4c(=O)c(C(=O)O)cn(Cc5ccc(C(F)(F)F)cc5)c4c3F)CC2)nc(N2CCCCC2)n1`, the results for the MIC with Staphylococcus aureus [1], against Klebsiella pneumoniae and against Staphylococcus aureus [2] were 0.39 µg/mL (≈ 0.607 µM), 0.39 µg/mL (≈ 0.607 µM) and 0.78 µg/mL (≈ 1.21 µM), respectively.
`Cc1cc(N2CCN(c3c(F)cc4c(=O)c(C(=O)O)cn(Cc5ccc(C(F)(F)F)cc5)c4c3F)CC2)nc(NCCN2CCOCC2)n1`: the MIC against Staphylococcus aureus [1] was 1.56 µg/mL (≈ 2.27 µM); against Klebsiella pneumoniae it was 1.56 µg/mL (≈ 2.27 µM); in the assay with Staphylococcus aureus [2] it was 0.78 µg/mL (≈ 1.13 µM).
Take `CCCNc1nc(C)cc(N2CCN(c3c(F)cc4c(=O)c(C(=O)O)cn(Cc5ccc(C(F)(F)F)cc5)c4c3F)CC2)n1`: the MIC against Staphylococcus aureus [1] is 3.12 µg/mL (≈ 5.06 µM); in the assay on Klebsiella pneumoniae, 1.56 µg/mL (≈ 2.53 µM); against Staphylococcus aureus [2], 1.56 µg/mL (≈ 2.53 µM).

The record behind these values is ChEMBL document CHEMBL1759957, “Synthesis and antibacterial evaluation of novel 8-fluoro Norfloxacin derivatives as potential probes for methicillin and vancomycin-resistant Staphylococcus aureus” (2011).
